{"source": "patent US8481087B2", "about": "“Withania somnifera plant extract and method of preparation thereof” (National Brain Research Centre, priority 2008, dated 2013)", "origin": "cited, not measured here", "test_system": "severely damaged neurons", "conditions": "severely damaged neurons in vitro", "data": [{"compound": "CC1=C(C)C(=O)O[C@@H]([C@](C)(O)[C@H]2CC[C@H]3[C@@H]4[C@@H]5O[C@@H]5[C@@]5(O)CC=CC(=O)[C@]5(C)[C@H]4CC[C@]23C)C1", "note": "[Withanolide-A]", "values": [{"measurement": "neurite regeneration and synapse reconstruction", "value": "regenerate neurites and reconstruct synapses"}]}]}
